This series can be described thus: Plasma protein binding by ultrafiltration. The format is in vitro ADME, non-human primate (NHP). The following applies: cynomolgus monkey, pH 7.4, NHP plasma, baseline. The procedure: The plasma protein binding of all three radioligands was determined in duplicate at the baseline condition according to a previously published method. For each blood plasma sample, 500 μL of non-human primate (NHP) blood plasma was used with 50 μL PBS (pH 7.4 containing KCl 0.2 mg, KH2PO4 0.2 mg, Na2HPO4 1.42 mg, and NaCl 8 mg per mL). The mixture included around 20 MBq of the corresponding radioligand in PBS. Samples underwent incubation at room temperature for 10 min. A small aliquot (20 µL) was taken from each mixture, and radioactivity measurements were performed using a well counter. From each mixture, 200 µL was placed into ultrafiltration tubes (Millipore Centrifree YM-30) and centrifuged at 3000 rpm for 15 minutes. The remaining filtrates were analyzed and aliquots (20 µL) were counted in the well counter described earlier. Protein-bound fractions were calculated as follows:(1) C⥂pla (filtrate) /Cpla (total) ÷CPBS (filtrate) /CPBS (total) ×100(%)
Cpla (total) represents the radioactivity concentration of incubation mixture in plasma and CPBS (total) represents the radioactivity concentration of incubation mixture in PBS. Cpla (filtrate) and CPBS (filtrate) are the radioactivity concentrations from filtrate samples.

The mark [1] stands for this setting: read-out: Free fraction in plasma (fP).
Setting [2] is: read-out: Plasma protein binding (converted).

Read-outs that look alike come from different tables or passages of the source.

Consider `C[C@@H]1C[C@@H]([18F])CN1c1c(C#N)c2c(N)nccc2n1C` [[^18F]1, 4-Amino-2-((2R,4R)-4-[^18F]fluoro-2-methylpyrrolidin-1-yl)-1-methyl-1H-pyrrolo[3,2-c]pyridine-3-carbonitrile], for which the fraction unbound at 10 min reads like this: under setting [1], roughly 0.45; under setting [2], roughly 0.45.

On to `C[C@@H]1C[C@@H]([18F])CN1c1c(C#N)c2c(N)ncnc2n1C` [[^18F]2, 4-Amino-6-((2R,4R)-4-[^18F]fluoro-2-methyl Pyrrolidin-1-yl)-7-methyl-7H-pyrrolo[2,3-d]pyrimidine-5-carbonitrile], for which the fraction unbound at 10 min is roughly 0.6 under setting [1] and roughly 0.6 under setting [2].

These data come from article PMC12735872, “Development of ^18F/^11C-Labeled Pyrrolo-Pyridine/Pyrimidine LRRK2 Selective PET Radioligands” (Pharmaceuticals, 2025).
